Test results from patent US20240115547A1, “PSYCHOTROPIC AGENTS AND USES THEREOF” (LB PHARMACEUTICALS INC., priority 2021, published 2024).

Tested on: Dopamine (e.g., D2/D3)
Test: Dopamine RO % by raclopride PET after LB-102, various dosage regimens (Example 3)
Format: in vivo, human
Conditions: for Dopamine RO % (Caudate + Putamen): group mean
Experimental: Healthy subjects were dosed orally with LB102 of 50 mg QD (n=4), 75 mg QD (n=4), 100 mg QD (n=4), 50 mg SS (n=2), or 100 mg SS (n=2). Subjects were, on average, 33 years old. Subjects dosed QD were given a single dose on day 1 after which PET scans were obtained; and subjects dosed SS, i.e., steady state, were dosed once a day for 4 days and PET scans were obtained after dosing on Day 4.
Dynamic […] raclopride PET scans were obtained 0 h, 2.5 h, 7.5 h, and 23.5 h after LB-102 administration for the 50 mg and 100 mg QD treatment groups and after LB-102 administration of Day 4 for the 50 mg SS and 100 mg SS treatment groups; and 0 h, 3.5 h, 23.5 h, and 47.5 h after LB-102 administration for the 75 mg QD treatment group. Dopamine % RO were calculated using the STRM method (https://pubmed.ncbi.nlm.nih.gov/9345505/, which is incorporated herein by reference) and the combined RO % (average of caudate and putamen RO %) are shown as squares FIGS. 5A (50 mg QD), 5B (75 mg QD), 5C (100 mg QD); and FIGS. 6A (50 mg SS Day 4) and 6B (100 mg SS Day 4); and summarized in Table 3-A below.
Dynamic ^11C raclopride PET scan results for calculation of dopamine RO % were measured in caudate, putamen, thalamus, and temporal lobe of each subject tested, and are summarized in Tables 3-B to 3-F below.

[1] = 50 mg QD, Subject 1, 2.5 h after LB-102 admin.
[2] = 50 mg QD, Subject 1, 7.5 h after LB-102 admin.
[3] = 50 mg QD, Subject 1, 23.5 h after LB-102 admin.
[4] = 50 mg QD, Subject 2, 2.5 h after LB-102 admin.
[5] = 50 mg QD, Subject 2, 7.5 h after LB-102 admin.
[6] = 50 mg QD, Subject 2, 23.5 h after LB-102 admin.
[7] = 50 mg QD, Subject 3, 7.5 h after LB-102 admin.
[8] = 50 mg QD, Subject 3, 23.5 h after LB-102 admin.
[9] = 50 mg QD, Subject 4, 2.5 h after LB-102 admin.
[10] = 50 mg QD, Subject 4, 7.5 h after LB-102 admin.
[11] = 50 mg QD, Subject 4, 23.5 h after LB-102 admin.
[12] = 50 mg SS (Day 4), Subject 1, ~3 h after LB-102 admin.
[13] = 50 mg SS (Day 4), Subject 1, ~8 h after LB-102 admin.
[14] = 50 mg SS (Day 4), Subject 1, ~24 h after LB-102 admin.
[15] = 50 mg SS (Day 4), Subject 2, ~3 h after LB-102 admin.
[16] = 50 mg SS (Day 4), Subject 2, ~8 h after LB-102 admin.
[17] = 50 mg SS (Day 4), Subject 2, ~24 h after LB-102 admin.
[18] = 75 mg QD, Subject 1, 3.5 h after LB-102 admin.
[19] = 75 mg QD, Subject 1, 23.5 h after LB-102 admin.
[20] = 75 mg QD, Subject 1, 47.5 h after LB-102 admin.
[21] = 75 mg QD, Subject 2, 3.5 h after LB-102 admin.
[22] = 75 mg QD, Subject 2, 23.5 h after LB-102 admin.
[23] = 75 mg QD, Subject 2, 47.5 h after LB-102 admin.

CCN1CCCC1CNC(=O)c1cc(S(=O)(=O)CC)c(NC)cc1OC (stereo not shown) [LB-102]
Dopamine RO % (Caudate + Putamen) (50 mg QD, 0 h after LB-102 administration): 0%
Dopamine RO % (Caudate + Putamen) (50 mg QD, 3 h after LB-102 administration): 24%
Dopamine RO % (Caudate + Putamen) (50 mg QD, 8 h after LB-102 administration): 38%
Dopamine RO % (Caudate + Putamen) (50 mg QD, 24 h after LB-102 administration): 42%
Dopamine RO % Caudate [1]: 26%
Dopamine RO % Putamen [1]: 23%
Dopamine RO % Temporal lobe [1]: 25%
Dopamine RO % Thalamus [1]: 40%
Dopamine RO % Caudate [2]: 52%
Dopamine RO % Putamen [2]: 47%
Dopamine RO % Temporal lobe [2]: 32%
Dopamine RO % Thalamus [2]: 48%
Dopamine RO % Caudate [3]: 58%
Dopamine RO % Putamen [3]: 48%
Dopamine RO % Temporal lobe [3]: 30%
Dopamine RO % Thalamus [3]: 39%
Dopamine RO % Caudate [4]: 28%
Dopamine RO % Putamen [4]: 25%
Dopamine RO % Temporal lobe [4]: 16%
Dopamine RO % Thalamus [4]: 42%
Dopamine RO % Caudate [5]: 42%
Dopamine RO % Putamen [5]: 37%
Dopamine RO % Temporal lobe [5]: 14%
Dopamine RO % Thalamus [5]: 31%
Dopamine RO % Caudate [6]: 45%
Dopamine RO % Putamen [6]: 36%
Dopamine RO % Temporal lobe [6]: 11%
Dopamine RO % Thalamus [6]: 23%
Dopamine RO % Caudate [7]: 36%
Dopamine RO % Putamen [7]: 25%
Dopamine RO % Temporal lobe [7]: 20%
Dopamine RO % Thalamus [7]: 42%
Dopamine RO % Caudate [8]: 53%
Dopamine RO % Putamen [8]: 37%
Dopamine RO % Temporal lobe [8]: 18%
Dopamine RO % Thalamus [8]: 45%
Dopamine RO % Caudate [9]: 23%
Dopamine RO % Putamen [9]: 19%
Dopamine RO % Temporal lobe [9]: 23%
Dopamine RO % Thalamus [9]: 26%
Dopamine RO % Caudate [10]: 43%
Dopamine RO % Putamen [10]: 34%
Dopamine RO % Temporal lobe [10]: 43%
Dopamine RO % Thalamus [10]: 28%
Dopamine RO % Caudate [11]: 45%
Dopamine RO % Putamen [11]: 34%
Dopamine RO % Temporal lobe [11]: 45%
Dopamine RO % Thalamus [11]: 18%
Dopamine RO % Caudate [12]: 75%
Dopamine RO % Putamen [12]: 67%
Dopamine RO % Temporal lobe [12]: 18%
Dopamine RO % Thalamus [12]: 44%
Dopamine RO % Caudate [13]: 78%
Dopamine RO % Putamen [13]: 69%
Dopamine RO % Temporal lobe [13]: 17%
Dopamine RO % Thalamus [13]: 40%
Dopamine RO % Caudate [14]: 75%
Dopamine RO % Putamen [14]: 66%
Dopamine RO % Temporal lobe [14]: 35%
Dopamine RO % Thalamus [14]: 30%
Dopamine RO % Caudate [15]: 74%
Dopamine RO % Putamen [15]: 66%
Dopamine RO % Temporal lobe [15]: 26%
Dopamine RO % Thalamus [15]: 37%
Dopamine RO % Caudate [16]: 76%
Dopamine RO % Putamen [16]: 70%
Dopamine RO % Temporal lobe [16]: 25%
Dopamine RO % Thalamus [16]: 43%
Dopamine RO % Caudate [17]: 73%
Dopamine RO % Putamen [17]: 63%
Dopamine RO % Temporal lobe [17]: 34%
Dopamine RO % Thalamus [17]: 56%
Dopamine RO % (Caudate + Putamen) (50 mg SS (once a day for 4 days), 3 h after Day 4 administration): 69%
Dopamine RO % (Caudate + Putamen) (50 mg SS (once a day for 4 days), 24 h after Day 4 administration): 68%
average dopamine (e.g., D2/D3) RO % in caudate, putamen, and thalamus (50 mg SS and 100 mg SS, at least from Day 4 since the treatment began): significantly stabilized
Dopamine RO % (Caudate + Putamen) (75 mg QD, 0 h after LB-102 administration): 0%
Dopamine RO % (Caudate + Putamen) (75 mg QD, 3 h after LB-102 administration): 33%
Dopamine RO % (Caudate + Putamen) (75 mg QD, 24 h after LB-102 administration): 55%
Dopamine RO % Caudate [18]: 27%
Dopamine RO % Putamen [18]: 20%
Dopamine RO % Temporal lobe [18]: 12%
Dopamine RO % Thalamus [18]: 31%
Dopamine RO % Caudate [19]: 70%
Dopamine RO % Putamen [19]: 52%
Dopamine RO % Temporal lobe [19]: 45%
Dopamine RO % Thalamus [19]: 64%
Dopamine RO % Caudate [20]: 53%
Dopamine RO % Putamen [20]: 38%
Dopamine RO % Temporal lobe [20]: 4%
Dopamine RO % Thalamus [20]: 16%
Dopamine RO % Caudate [21]: 53%
Dopamine RO % Putamen [21]: 48%
Dopamine RO % Temporal lobe [21]: 21%
Dopamine RO % Thalamus [21]: 44%
Dopamine RO % Caudate [22]: 58%
Dopamine RO % Putamen [22]: 53%
Dopamine RO % Temporal lobe [22]: 17%
Dopamine RO % Thalamus [22]: 37%
Dopamine RO % Caudate [23]: 45%
Dopamine RO % Putamen [23]: 39%
Dopamine RO % Temporal lobe [23]: 16%
Dopamine RO % Thalamus [23]: 25%
Dopamine RO % Caudate (75 mg QD, Subject 3, 3.5 h after LB-102 admin.): 57%
